Measurements from PubChem BioAssay AID248 (DTP/NCI, 2004).
Values joined by “and” are separate entries in the source; they are usually repeats but may differ in a detail not shown here. Equal values may be shown once. Inconclusive results and toxic doses are left out. Cut-off read from the data, not from the text of the source: active = T/C of 150% or more; inactive = T/C below 125%.

Tested on: L1210 leukemia ip in BDF1 mice, survival T/C
Assay: NCI In Vivo Anticancer Drug Screen. Data for tumor model L1210 Leukemia (intraperitoneal) in B6D2F1 (BDF1) mice
Conditions: endpoint: mean survival time, higher = longer survival
Procedure, shortened: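 Tumor cells were implanted, animals were treated, and survival was followed. The result divides the treated measurement by the vehicle-control measurement.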

[1] = dose: 100.0 mg/kg/injection, schedule: Q01DX009 (ip), vehicle: Klucel (hydroxypropylcellulose) (HPC)
[2] = dose: 100.0 mg/kg/injection, schedule: Q04DX003 (ip), vehicle: Klucel (hydroxypropylcellulose) (HPC)
[3] = dose: 200.0 mg/kg/injection, schedule: Q01DX009 (ip), vehicle: Klucel (hydroxypropylcellulose) (HPC)
[4] = dose: 200.0 mg/kg/injection, schedule: Q04DX003 (ip), vehicle: Klucel (hydroxypropylcellulose) (HPC)
[5] = dose: 400.0 mg/kg/injection, schedule: Q04DX003 (ip), vehicle: Klucel (hydroxypropylcellulose) (HPC)
[6] = dose: 100.0 mg/kg/injection, schedule: Q01DX001 (ip), vehicle: saline
[7] = dose: 200.0 mg/kg/injection, schedule: Q01DX001 (ip), vehicle: saline
[8] = dose: 400.0 mg/kg/injection, schedule: Q01DX001 (ip), vehicle: saline
[9] = dose: 100.0 mg/kg/injection, schedule: Q01DX001 (ip), vehicle: saline with Tween-80
[10] = dose: 200.0 mg/kg/injection, schedule: Q01DX001 (ip), vehicle: saline with Tween-80
[11] = dose: 400.0 mg/kg/injection, schedule: Q01DX001 (ip), vehicle: saline with Tween-80
[12] = dose: 12.5 mg/kg/injection, schedule: Q01DX009 (ip), vehicle: Klucel (hydroxypropylcellulose) (HPC)

Measured: T/C

CSc1nc2c(c(=O)[nH]1)C1C=C(C)CCC1C(C)(C)C2 (configuration not stated)
inactive: dose: 100.0 mg/kg/injection, schedule: Q04DX002 (ip), vehicle: Klucel (hydroxypropylcellulose) (HPC) 98 % of control | dose: 200.0 mg/kg/injection, schedule: Q04DX002 (ip), vehicle: Klucel (hydroxypropylcellulose) (HPC) 96 % of control

O=C(Nc1ccc(S(=O)(=O)F)cc1)/C(=C\c1ccc([N+](=O)[O-])cc1)c1cccc2ccccc12
inactive: dose: 100.0 mg/kg/injection, schedule: Q01DX009 (ip), vehicle: saline 91 % of control | dose: 200.0 mg/kg/injection, schedule: Q01DX009 (ip), vehicle: saline 99 % of control | dose: 400.0 mg/kg/injection, schedule: Q01DX009 (ip), vehicle: saline 94 % of control

CSCCC(NC(=O)CNC(=O)OCc1ccccc1)C(=O)O (configuration not stated)
inactive: dose: 100.0 mg/kg/injection, schedule: Q04DX003 (ip), vehicle: saline with Tween-80 106 % of control | dose: 200.0 mg/kg/injection, schedule: Q04DX003 (ip), vehicle: saline with Tween-80 95 % of control | dose: 400.0 mg/kg/injection, schedule: Q04DX003 (ip), vehicle: saline with Tween-80 107 % of control

Cc1ccc(S(=O)(=O)OCC2C(COS(=O)(=O)c3ccc(C)cc3)C3CCC2C3C(c2ccccc2)c2ccccc2)cc1 (configuration not stated)
inactive: [1] 103 % of control | [2] 98 % of control | [3] 94 % of control | [4] 102 % of control | dose: 400.0 mg/kg/injection, schedule: Q01DX009 (ip), vehicle: Klucel (hydroxypropylcellulose) (HPC) 111 % of control | [5] 96 % of control

S=P(Nc1ccccc1)(Nc1ccccc1)Oc1cc(Cl)c(Cl)cc1Cl
inactive: [6] 92 % of control | [7] 93 % of control | [8] 92 % of control

CCC1CC2c3cc(OC)c(OC)cc3CCN2CC1(O)Cc1nccc2c1CCCC2 (configuration not stated)
inactive: dose: 100.0 mg/kg/injection, schedule: Q01DX001 (ip), vehicle: carboxymethylcellulose (CMC) 104 % of control | dose: 200.0 mg/kg/injection, schedule: Q01DX001 (ip), vehicle: carboxymethylcellulose (CMC) 103 % of control | dose: 400.0 mg/kg/injection, schedule: Q01DX001 (ip), vehicle: carboxymethylcellulose (CMC) 95 % of control

COC1(OC)C2CCC1C1OC12 (configuration not stated)
inactive: dose: 100.0 mg/kg/injection, schedule: Q04DX002 (ip), vehicle: saline 107 % of control | dose: 200.0 mg/kg/injection, schedule: Q04DX002 (ip), vehicle: saline 97 % of control | dose: 400.0 mg/kg/injection, schedule: Q04DX002 (ip), vehicle: saline 97 % of control

NC(=O)C(O)(c1ccccc1)c1ccccc1
inactive: [9] 100 % of control | [10] 97 % of control | [11] 101 % of control

Clc1cc(Cl)c(I)c(Cl)c1
inactive: [1] 95 % of control | [2] 93 % of control | [3] 95 % of control | [4] 95 % of control | [5] 92 % of control

CCC1=C[C@H]2CN(CCc3c([nH]c4ccccc34)[C@@](C(=O)OC)(c3cc4c(cc3OC)N(C)[C@H]3[C@@](O)(C(=O)OC)[C@H](OC(C)=O)[C@]5(CC)C=CCN6CC[C@]43[C@@H]65)C2)C1
inactive: dose: 0.25 mg/kg/injection, schedule: Q01DX009 (ip), vehicle: water 109 % of control | dose: 0.5 mg/kg/injection, schedule: Q01DX009 (ip), vehicle: water 101 % of control | dose: 1.0 mg/kg/injection, schedule: Q01DX009 (ip), vehicle: water 111 % of control | dose: 2.0 mg/kg/injection, schedule: Q01DX009 (ip), vehicle: water 103 % of control | dose: 4.0 mg/kg/injection, schedule: Q01DX009 (ip), vehicle: water 114 % of control | dose: 8.0 mg/kg/injection, schedule: Q01DX009 (ip), vehicle: water 112 % of control

CC1(C)COC(=S)N1
inactive: dose: 3.13 mg/kg/injection, schedule: Q01DX009 (ip), vehicle: Klucel (hydroxypropylcellulose) (HPC) 100 % of control | dose: 5.0 mg/kg/injection, schedule: Q01DX009 (ip), vehicle: saline 100 % of control | dose: 5.0 mg/kg/injection, schedule: Q04DX003 (ip), vehicle: saline 98 % of control | dose: 6.25 mg/kg/injection, schedule: Q01DX009 (ip), vehicle: Klucel (hydroxypropylcellulose) (HPC) 103 % of control | dose: 10.0 mg/kg/injection, schedule: Q01DX009 (ip), vehicle: Klucel (hydroxypropylcellulose) (HPC) 97 % of control | dose: 10.0 mg/kg/injection, schedule: Q01DX009 (ip), vehicle: saline 100 % of control | dose: 10.0 mg/kg/injection, schedule: Q04DX003 (ip), vehicle: saline 102 % of control | [12] 97 % of control and 87 % of control | dose: 20.0 mg/kg/injection, schedule: Q04DX003 (ip), vehicle: Klucel (hydroxypropylcellulose) (HPC) 100 % of control | dose: 20.0 mg/kg/injection, schedule: Q04DX003 (ip), vehicle: saline 101 % of control

O=C1NC2c3ccccc3CC12 (configuration not stated)
inactive: [9] 95 % of control | [10] 92 % of control | [11] 89 % of control

O=C1C=CC(=O)N1c1ccc([N+](=O)[O-])cc1[N+](=O)[O-]
inactive: [12] 98 % of control | dose: 25.0 mg/kg/injection, schedule: Q01DX009 (ip), vehicle: Klucel (hydroxypropylcellulose) (HPC) 103 % of control | dose: 50.0 mg/kg/injection, schedule: Q01DX009 (ip), vehicle: Klucel (hydroxypropylcellulose) (HPC) 103 % of control | [1] 105 % of control

NC(=O)N/N=C1/CCCC(C(=O)O)C1 (configuration not stated)
inactive: dose: 100.0 mg/kg/injection, schedule: Q01DX001 (ip), vehicle: Klucel (hydroxypropylcellulose) (HPC) 105 % of control | [2] 102 % of control | dose: 200.0 mg/kg/injection, schedule: Q01DX001 (ip), vehicle: Klucel (hydroxypropylcellulose) (HPC) 109 % of control | [4] 98 % of control | dose: 400.0 mg/kg/injection, schedule: Q01DX001 (ip), vehicle: Klucel (hydroxypropylcellulose) (HPC) 103 % of control | [5] 100 % of control

CCN(CC)C(=S)SCc1ccccc1OC(=O)NC
inactive: dose: 75.0 mg/kg/injection, schedule: Q01DX001 (ip), vehicle: saline 101 % of control | dose: 150.0 mg/kg/injection, schedule: Q01DX001 (ip), vehicle: saline 98 % of control

N/C(=N\[N+](=O)[O-])N(Cc1ccccc1)/N=C/c1ccccc1
inactive: dose: 87.5 mg/kg/injection, schedule: Q04DX003 (ip), vehicle: Klucel (hydroxypropylcellulose) (HPC) 92 % of control | dose: 175.0 mg/kg/injection, schedule: Q04DX003 (ip), vehicle: Klucel (hydroxypropylcellulose) (HPC) 92 % of control | dose: 350.0 mg/kg/injection, schedule: Q04DX003 (ip), vehicle: Klucel (hydroxypropylcellulose) (HPC) 88 % of control

CSc1ccc(C(CNC(C)=O)C(C#N)C#N)cc1 (configuration not stated)
inactive: [6] 101 % of control | [7] 103 % of control | [8] 89 % of control

COc1ccc(/C=C/c2ccc3ccccc3[n+]2C)c(OC)c1OC
inactive: dose: 5.0 mg/kg/injection, schedule: Q01DX009 (oral), vehicle: carboxymethylcellulose (CMC) 104 % of control | dose: 5.0 mg/kg/injection, schedule: Q04DX003 (ip), vehicle: saline with Tween-80 106 % of control | dose: 10.0 mg/kg/injection, schedule: Q01DX009 (oral), vehicle: carboxymethylcellulose (CMC) 98 % of control | dose: 10.0 mg/kg/injection, schedule: Q04DX003 (ip), vehicle: saline with Tween-80 114 % of control | dose: 20.0 mg/kg/injection, schedule: Q01DX009 (oral), vehicle: carboxymethylcellulose (CMC) 106 % of control | dose: 20.0 mg/kg/injection, schedule: Q04DX003 (ip), vehicle: saline with Tween-80 108 % of control | dose: 40.0 mg/kg/injection, schedule: Q01DX009 (oral), vehicle: carboxymethylcellulose (CMC) 109 % of control | dose: 80.0 mg/kg/injection, schedule: Q01DX009 (oral), vehicle: carboxymethylcellulose (CMC) 97 % of control

C=CCNc1ccc(OC)cc1
inactive: dose: 50.0 mg/kg/injection, schedule: Q01DX009 (ip), vehicle: saline with Tween-80 88 % of control | dose: 100.0 mg/kg/injection, schedule: Q01DX009 (ip), vehicle: saline with Tween-80 96 % of control | dose: 200.0 mg/kg/injection, schedule: Q01DX009 (ip), vehicle: saline with Tween-80 98 % of control

COc1c2ccccc2cc2ccccc12
inactive: dose: 50.0 mg/kg/injection, schedule: Q01DX009 (ip), vehicle: acetone 94 % of control | dose: 100.0 mg/kg/injection, schedule: Q01DX009 (ip), vehicle: acetone 92 % of control | dose: 200.0 mg/kg/injection, schedule: Q01DX009 (ip), vehicle: acetone 89 % of control
